Experimental data taken from PMC7071059, “Targeting Receptor Tyrosine Kinase VEGFR-2 in Hepatocellular Cancer: Rational Design, Synthesis and Biological Evaluation of 1,2-Disubstituted Benzimidazoles” (Molecules, 2020).

Columns and labels:
Assay in all cases: NCI 60 one dose (10 μM) anticancer assay
Format in all cases: cell-based
786-0 = conditions: Homo sapiens, 10 µM one dose, Renal Cancer, read-out: Growth Inhibition % 786-0
Method: (§1) Some of the synthesized compounds were selected by the NCI, Bethesda, MD, USA for evaluation of their anticancer activity. An in vitro one dose (10 μM) anticancer assay was conducted on a full NCI 60-cell line panel derived from 9 different cancer types. Table 2 presents the percent of growth inhibition of some cell lines. […] K-562 and MOLT-4 from leukemia, NCI-H522 from non-small cell lung cancer, HCT-116 from colon cancer, SK-MEL-5 and UACC-62 from melanoma, UO-31 from renal cancer, PC-3 from prostate cancer and HS 578T and T-47D from breast cancer are the most sensitive cell lines to the tested compounds. No growth inhibition was observed from the selected compounds against COLO205, HCC-2998, MALME-3M, SK-MEL-28, DU-145 and BT-549 cell lines. […] Against UO-31 from renal cancer and PC-3 from prostate cancer, it inhibited the growth of 44% and 58% of the cancer cells, respectively.

CAK1-1 = conditions: 10 µM one dose; Renal Cancer; read-out: Growth Inhibition % CAK1-1
Method: as §1

CCRF-CEM = conditions: Homo sapiens, 10 µM one dose, Leukemia, read-out: Growth Inhibition % CCRF-CEM
Method: as §1

EKVX = conditions: Homo sapiens, 10 µM one dose, Non-small cell lung Cancer, read-out: Growth Inhibition % EKVX
Method: as §1

HCT-116 = conditions: Homo sapiens, 10 µM one dose, Colon Cancer, read-out: Growth Inhibition % HCT-116
Method: as §1

HCT-15 = conditions: Homo sapiens, 10 µM one dose, Colon Cancer, read-out: Growth Inhibition % HCT-15
Method: as §1

HL-60(TB) = conditions: Homo sapiens, 10 µM one dose, Leukemia, read-out: Growth Inhibition % HL-60(TB)
Method: as §1

HOP-62 = conditions: Homo sapiens, 10 µM one dose, Non-small cell lung Cancer, read-out: Growth Inhibition % HOP-62
Method: as §1

HT29 = conditions: Homo sapiens, HT-29; 10 µM one dose; Colon Cancer; read-out: Growth Inhibition % HT29
Method: as §1

KM12 = conditions: Homo sapiens, 10 µM one dose, Colon Cancer, read-out: Growth Inhibition % KM12
Method: as §1

MCF7 = conditions: Homo sapiens, 10 µM one dose, Breast Cancer, read-out: Growth Inhibition % MCF7
Method: as §1

MDA-MB-231/ATTC = conditions: Homo sapiens, 10 µM one dose, Breast Cancer, read-out: Growth Inhibition % MDA-MB-231/ATTC
Method: as §1

MDA-MB-435 = conditions: Homo sapiens, 10 µM one dose, Melanoma, read-out: Growth Inhibition % MDA-MB-435
Method: as §1

MOLT-4 = conditions: Homo sapiens, 10 µM one dose, Leukemia, read-out: Growth Inhibition % MOLT-4
Method: as §1

NCI-H226 = conditions: Homo sapiens, 10 µM one dose, Non-small cell lung Cancer, read-out: Growth Inhibition % NCI-H226
Method: as §1

NCI-H23 = conditions: Homo sapiens, 10 µM one dose, Non-small cell lung Cancer, read-out: Growth Inhibition % NCI-H23
Method: as §1

NCI-H322M = conditions: Homo sapiens, 10 µM one dose, Non-small cell lung Cancer, read-out: Growth Inhibition % NCI-H322M
Method: as §1

OVCAR-4 = conditions: Homo sapiens, 10 µM one dose, Ovarian Cancer, read-out: Growth Inhibition % OVCAR-4
Method: as §1

OVCAR-5 = conditions: Homo sapiens, 10 µM one dose, Ovarian Cancer, read-out: Growth Inhibition % OVCAR-5
Method: as §1

OVCAR-8 = conditions: Homo sapiens, 10 µM one dose, Ovarian Cancer, read-out: Growth Inhibition % OVCAR-8
Method: as §1

RXF 393 = conditions: Homo sapiens, 10 µM one dose, Renal Cancer, read-out: Growth Inhibition % RXF 393
Method: as §1

SF-268 = conditions: Homo sapiens, 10 µM one dose, CNS Cancer, read-out: Growth Inhibition % SF-268
Method: as §1

SK-MEL-5 = conditions: Homo sapiens, 10 µM one dose, Melanoma, read-out: Growth Inhibition % SK-MEL-5
Method: as §1

SNB-19 = conditions: Homo sapiens, 10 µM one dose, CNS Cancer, read-out: Growth Inhibition % SNB-19
Method: as §1

SNB-75 = conditions: Homo sapiens, 10 µM one dose, CNS Cancer, read-out: Growth Inhibition % SNB-75
Method: as §1

T-47D = conditions: Homo sapiens, T47D; 10 µM one dose; Breast Cancer; read-out: Growth Inhibition % T-47D
Method: as §1

TK-10 = conditions: Homo sapiens, 10 µM one dose, Renal Cancer, read-out: Growth Inhibition % TK-10
Method: as §1

U251 = conditions: Homo sapiens, U-251; 10 µM one dose; CNS Cancer; read-out: Growth Inhibition % U251
Method: as §1

UACC-62 = conditions: Homo sapiens, 10 µM one dose, Melanoma, read-out: Growth Inhibition % UACC-62
Method: as §1

UO-31 = conditions: Homo sapiens, 10 µM one dose, Renal Cancer, read-out: Growth Inhibition % UO-31
Method: as §1

COc1cc(/C=N/NC(=O)Cn2c(C(C)C)nc3ccccc32)ccc1OCc1ccccc1 [Compound 17e, (E)-N′-(4-(Benzyloxy)-3-methoxybenzylidene)-2-(2-isopropyl-1H-benzo[d]imidazol-1-yl)acetohydrazide] was tested, and the inhibition at 10 µM (786-0) was less than 10%, the inhibition at 10 µM (CAK1-1) was less than 10% and the inhibition at 10 µM (CCRF-CEM) was less than 10%. The inhibition at 10 µM (EKVX) was less than 10%, the inhibition at 10 µM (HCT-116) was less than 10% and the inhibition at 10 µM (HCT-15) was less than 10%. For the same compound, the inhibition at 10 µM (HL-60(TB)) was less than 10%, the inhibition at 10 µM (HOP-62) was less than 10% and the inhibition at 10 µM (HT29) was less than 10%. The inhibition at 10 µM (KM12) was less than 10%, the inhibition at 10 µM (MCF7) was less than 10% and the inhibition at 10 µM (MDA-MB-231/ATTC) was less than 10%. For the same compound, the inhibition at 10 µM (MDA-MB-435) was less than 10%, the inhibition at 10 µM (MOLT-4) was 22% and the inhibition at 10 µM (NCI-H226) was less than 10%. It also gave an inhibition at 10 µM (NCI-H23) of less than 10%, an inhibition at 10 µM (NCI-H322M) of less than 10% and an inhibition at 10 µM (OVCAR-4) of less than 10%. It also gave an inhibition at 10 µM (OVCAR-5) of less than 10%, an inhibition at 10 µM (OVCAR-8) of less than 10% and an inhibition at 10 µM (RXF 393) of less than 10%. For the same compound, the inhibition at 10 µM (SF-268) was less than 10%, the inhibition at 10 µM (SK-MEL-5) was 17% and the inhibition at 10 µM (SNB-19) was less than 10%. It also gave an inhibition at 10 µM (SNB-75) of less than 10%, an inhibition at 10 µM (T-47D) of 27% and an inhibition at 10 µM (TK-10) of less than 10%. The inhibition at 10 µM (U251) was less than 10%, the inhibition at 10 µM (UACC-62) was 22% and the inhibition at 10 µM (UO-31) was 20%.

For COc1cc(/C=N/NC(=O)Cn2c(-c3ccc(C)o3)nc3ccccc32)ccc1OCc1ccccc1 [Compound 17f, (E)-N′-(4-(Benzyloxy)-3-methoxybenzylidene)-2-(2-(5-methylfuran-2-yl)-1H-benzo[d]imidazol-1-yl)acetohydrazide], the inhibition at 10 µM (786-0) was less than 10%, the inhibition at 10 µM (CAK1-1) was 17% and the inhibition at 10 µM (CCRF-CEM) was 19%. The inhibition at 10 µM (EKVX) was 25%, the inhibition at 10 µM (HCT-116) was 28% and the inhibition at 10 µM (HCT-15) was 26%. It also gave an inhibition at 10 µM (HL-60(TB)) of less than 10%, an inhibition at 10 µM (HOP-62) of less than 10% and an inhibition at 10 µM (HT29) of less than 10%. For the same compound, the inhibition at 10 µM (KM12) was 15%, the inhibition at 10 µM (MCF7) was 24% and the inhibition at 10 µM (MDA-MB-231/ATTC) was 21%. For the same compound, the inhibition at 10 µM (MDA-MB-435) was less than 10%, the inhibition at 10 µM (MOLT-4) was 50% and the inhibition at 10 µM (NCI-H226) was 16%. It also gave an inhibition at 10 µM (NCI-H23) of less than 10%, an inhibition at 10 µM (NCI-H322M) of less than 10% and an inhibition at 10 µM (OVCAR-4) of less than 10%. The inhibition at 10 µM (OVCAR-5) was less than 10%, the inhibition at 10 µM (OVCAR-8) was 19% and the inhibition at 10 µM (RXF 393) was less than 10%. For the same compound, the inhibition at 10 µM (SF-268) was 24%, the inhibition at 10 µM (SK-MEL-5) was 23% and the inhibition at 10 µM (SNB-19) was 20%. For the same compound, the inhibition at 10 µM (SNB-75) was 17%, the inhibition at 10 µM (T-47D) was 31% and the inhibition at 10 µM (TK-10) was less than 10%. For the same compound, the inhibition at 10 µM (U251) was less than 10%, the inhibition at 10 µM (UACC-62) was 22% and the inhibition at 10 µM (UO-31) was 38%.
